Test results reported in patent US20240228458A1, “PYRIMIDINE DERIVATIVE HAVING PROTEIN KINASE INHIBITORY ACTIVITY, AND THERAPEUTIC PHARMACEUTICAL COMPOSITION COMPRISING SAME” (THERAPEX CO., LTD., priority 2021, published 2024).

Assays:
Assay type in all cases: cell-based
[1] = system: Ba/F3 cells expressing EGFR-wt; test: Growth inhibition (GI50) of Ba/F3 cells expressing EGFR-wt, Celltiter glo; conditions: Mus musculus, BaF3, 72 h
In short: (§1)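 Viability read by CellTiter-Glo after 72 h compound exposure (37 °C, 5% CO2) of variant-expressing Ba/F3 cells plated at 100,000 cells/ml. Dosing 4 h post-seeding; 10-pt 4-fold series from 2 mM stock; 0.5% DMSO. GI50 = molar concentration (μM) giving half-maximal growth inhibition.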

[2] = system: Ba/F3 cells expressing del19/T790M/C797S (EGFR-DTC); test: Growth inhibition (GI50) of Ba/F3 cells expressing del19/T790M/C797S (EGFR-DTC), Celltiter glo; conditions: Mus musculus, BaF3, 72 h
In short: as §1

[3] = system: Ba/F3 cells expressing L858R/T790M/C797S (EGFR-LTC); test: Growth inhibition (GI50) of Ba/F3 cells expressing L858R/T790M/C797S (EGFR-LTC), Celltiter glo; conditions: Mus musculus, BaF3, 72 h
In short: as §1

[4] = system: Ba/F3 cells expressing del19/T790M (EGFR-DT); test: Growth inhibition (GI50) of Ba/F3 cells expressing del19/T790M (EGFR-DT), Celltiter glo; conditions: Mus musculus, BaF3, 72 h
In short: as §1

[5] = system: Ba/F3 cells expressing L858R/T790M (EGFR-LT); test: Growth inhibition (GI50) of Ba/F3 cells expressing L858R/T790M (EGFR-LT), Celltiter glo; conditions: Mus musculus, BaF3, 72 h
In short: as §1

[6] = system: parental Ba/F3 cell line; test: Growth inhibition (GI50) of the parental Ba/F3 cell line (not introduced with EGFR variants), Celltiter glo; conditions: Mus musculus, BaF3, 72 h, parental Ba/F3 cells
In short: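 Parental Ba/F3 cells (100,000 cells/ml) were treated with 10-point, 4-fold compound dilutions (0.5% DMSO; top stock 2 mM) for 72 h at 37 °C, 5% CO2. Viability was read by CellTiter-Glo; GI50 is the concentration (μM) giving 50% growth inhibition.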

## COc1cc(N2CCC(N3CCCC(N(C)C)C3)CC2)c(Cl)cc1Nc1ncc(Br)c(Nc2ccc(F)cc2NS(C)(=O)=O)n1 (stereo not drawn) [Example 149, N-(2-((5-bromo-2-((5-chloro-4-(3-(dimethylamino)-[1,4′-bipiperidin]-1′-yl)-2-methoxyphenyl)amino)pyrimidin-4-yl)amino)-5-fluorophenyl)methanesulfonamide]
[1]
  GI50: 100 to 500 nM
[2]
  GI50: 100 to 500 nM
[3]
  GI50: 25 to 100 nM
[4]
  GI50: 100 to 500 nM
[5]
  GI50: 100 to 500 nM
[6]
  GI50: 100 to 500 nM

## COc1cc(N2CCC(N3CCN(C)CC3)CC2)c(C)cc1Nc1nnc(Cl)c(Nc2cc(Cl)ccc2NS(C)(=O)=O)n1 [Example 152, N-(4-chloro-2-((6-chloro-3-((-2-methoxy-5-methyl-4-(4-(4-methylpiperazin-1-yl)piperidin-1-yl)phenyl)amino)-1,2,4-triazin-5-yl)amino)phenyl)methanesulfonamide]
[1]
  GI50: 100 to 500 nM
[2]
  GI50: 1 to 25 nM
[3]
  GI50: 1 to 25 nM
[4]
  GI50: 1 to 25 nM
[5]
  GI50: 1 to 25 nM
[6]
  GI50: 500 to 2000 nM

## COc1cc(N2CCC(N3CCN(C)CC3)CC2)c(C)cc1Nc1ncc(Cl)c(Nc2cc(Cl)ccc2P(C)(C)=O)n1 [Example 153, (4-chloro-2-((5-chloro-2-((2-methoxy-5-methyl-4-(4-(4-methylpiperazin-1-yl)piperidin-1-yl)phenyl)amino)pyrimidin-4-yl)amino)phenyl)dimethylphosphine oxide]
[1]
  GI50: 500 to 2000 nM
[2]
  GI50: 100 to 500 nM
[3]
  GI50: 100 to 500 nM
[4]
  GI50: 100 to 500 nM
[5]
  GI50: 500 to 2000 nM
[6]
  GI50: 2000 to 10000 nM

## Cc1cc(Nc2ncc(Cl)c(Nc3cc(Cl)ccc3P(C)(C)=O)n2)c(Cl)cc1N1CCC(N2CCN(C)CC2)CC1 [Example 154, (4-chloro-2-((5-chloro-2-((2-chloro-5-methyl-4-(4-(4-methylpiperazin-1-yl)piperidin-1-yl)phenyl)amino)pyrimidin-4-yl)amino)phenyl)dimethylphosphine oxide]
[1]
  GI50: 2000 to 10000 nM
[2]
  GI50: 100 to 500 nM
[3]
  GI50: 500 to 2000 nM
[4]
  GI50: 500 to 2000 nM
[5]
  GI50: 2000 to 10000 nM
[6]
  GI50: 2000 to 10000 nM

## COc1cc(N2CCC(N3CCN(C)CC3)CC2)c(C)cc1Nc1ncc(Br)c(Nc2cc(Cl)ccc2N(C)S(C)(=O)=O)n1 [Example 155, N-(2-((5-bromo-2-((2-methoxy-5-methyl-4-(4-(4-methylpiperazin-1-yl)piperidin-1-yl)phenyl)amino)pyrimidin-4-yl)amino)-4-chlorophenyl)-N-methylmethanesulfonamide]
[1]
  GI50: 25 to 100 nM
[2]
  GI50: 1 to 25 nM
[3]
  GI50: 1 to 25 nM
[4]
  GI50: 1 to 25 nM
[5]
  GI50: 25 to 100 nM
[6]
  GI50: 100 to 500 nM

## COc1cc(N2CCC(N3CCN(C)CC3)CC2)c(Cl)cc1Nc1ncc(Br)c(Nc2cc(Cl)ccc2N(C)S(C)(=O)=O)n1 [Example 156, N-(2-((5-bromo-2-((5-chloro-2-methoxy-4-(4-(4-methylpiperazin-1-yl)piperidin-1-yl)phenyl)amino)pyrimidin-4-yl)amino)-4-chlorophenyl)-N-methylmethanesulfonamide]
[1]
  GI50: 1 to 25 nM
[2]
  GI50: 1 to 25 nM
[3]
  GI50: 1 to 25 nM
[4]
  GI50: 1 to 25 nM
[5]
  GI50: 1 to 25 nM
[6]
  GI50: 100 to 500 nM

## Cc1cc(Nc2ncc(Cl)c(Nc3cc(Cl)ccc3NS(C)(=O)=O)n2)c(Cl)cc1N1CCC(N2CCC(N(C)C)C2)CC1 (stereo not drawn) [Example 157, N-(4-chloro-2-((5-chloro-2-((2-chloro-4-(4-(3-(dimethylamino)pyrrolidin-1-yl)piperidin-1-yl)-5-methylphenyl)amino)pyrimidin-4-yl)amino)phenyl)methanesulfonamide]
[1]
  GI50: 100 to 500 nM
[2]
  GI50: 100 to 500 nM
[3]
  GI50: 25 to 100 nM
[4]
  GI50: 25 to 100 nM
[5]
  GI50: 25 to 100 nM
[6]
  GI50: 500 to 2000 nM

## Cc1cc(Nc2ncc(Cl)c(Nc3cc(Cl)ccc3NS(C)(=O)=O)n2)c(Cl)cc1N1CCC(N2CCN(C)CC2)CC1 [Example 158, N-(4-chloro-2-((5-chloro-2-((2-chloro-5-methyl-4-(4-(4-methylpiperazin-1-yl)piperidin-1-yl)phenyl)amino)pyrimidin-4-yl)amino)phenyl)methanesulfonamide]
[1]
  GI50: 500 to 2000 nM
[2]
  GI50: 1 to 25 nM
[3]
  GI50: 1 to 25 nM
[4]
  GI50: 25 to 100 nM
[5]
  GI50: 25 to 100 nM
[6]
  GI50: 2000 to 10000 nM

## COc1cc(N2CCC(N3CCN(C)CC3)CC2)c(C)cc1Nc1ncc(Cl)c(Nc2cc(C(C)C)ccc2NS(C)(=O)=O)n1 [Example 160, N-(2-((5-chloro-2-((2-methoxy-5-methyl-4-(4-(4-methylpiperazin-1-yl)piperidin-1-yl)phenyl)amino)pyrimidin-4-yl)amino)-4-isopropylphenyl)methanesulfonamide]
[1]
  GI50: 500 to 2000 nM
[2]
  GI50: 25 to 100 nM
[3]
  GI50: 100 to 500 nM
[4]
  GI50: 100 to 500 nM
[5]
  GI50: 100 to 500 nM
[6]
  GI50: 2000 to 10000 nM

## COc1cc(N2CCC(N3CCN(C)CC3)CC2)c(Cl)cc1Nc1ncc(Cl)c(Nc2cc(C(C)C)ccc2NS(C)(=O)=O)n1 [Example 161, N-(2-((5-chloro-2-((5-chloro-2-methoxy-4-(4-(4-methylpiperazin-1-yl)piperidin-1-yl)phenyl)amino)pyrimidin-4-yl)amino)-4-isopropylphenyl)methanesulfonamide]
[1]
  GI50: 2000 to 10000 nM
[2]
  GI50: 100 to 500 nM
[3]
  GI50: 500 to 2000 nM
[4]
  GI50: 100 to 500 nM
[5]
  GI50: 500 to 2000 nM
[6]
  GI50: 2000 to 10000 nM

## Cc1cc(Nc2ncc(Cl)c(Nc3cc(Cl)ccc3NS(C)(=O)=O)n2)c(Cl)cc1N1CCC(N2CCCN(C)CC2)CC1 [Example 162, N-(4-chloro-2-((5-chloro-2-((2-chloro-5-methyl-4-(4-(4-methyl-1,4-diazepan-1-yl)piperidin-1-yl)phenyl)amino)pyrimidin-4-yl)amino)phenyl)methanesulfonamide]
[1]
  GI50: 500 to 2000 nM
[2]
  GI50: 100 to 500 nM
[3]
  GI50: 2000 to 10000 nM
[4]
  GI50: 2000 to 10000 nM
[5]
  GI50: 2000 to 10000 nM
[6]
  GI50: 2000 to 10000 nM

## COc1cc(N2CCC(N3CCCN(C)CC3)CC2)c(Cl)cc1Nc1ncc(Cl)c(Nc2cc(Cl)ccc2NS(C)(=O)=O)n1 [Example 163, N-(4-chloro-2-((5-chloro-2-((5-chloro-2-methoxy-4-(4-(4-methyl-1,4-diazepan-1-yl)piperidin-1-yl)phenyl)amino)pyrimidin-4-yl)amino)phenyl)methanesulfonamide]
[1]
  GI50: 2000 to 10000 nM
[2]
  GI50: 100 to 500 nM
[3]
  GI50: 2000 to 10000 nM
[4]
  GI50: 2000 to 10000 nM
[5]
  GI50: 2000 to 10000 nM
[6]
  GI50: > 10000 nM

## COc1cc(N2CCC(N3CCN(C)CC3)CC2)c(C)cc1Nc1nnc(Cl)c(Nc2ccc(F)cc2NS(C)(=O)=O)n1 [Example 164, N-(2-((6-chloro-3-((2-methoxy-5-methyl-4-(4-(4-methylpiperazin-1-yl)piperidin-1-yl)phenyl)amino)-1,2,4-triazin-5-yl)amino)-5-fluorophenyl)methanesulfonamide]
[1]
  GI50: 2000 to 10000 nM
[2]
  GI50: 100 to 500 nM
[3]
  GI50: 2000 to 10000 nM
[4]
  GI50: 2000 to 10000 nM
[5]
  GI50: 2000 to 10000 nM
[6]
  GI50: > 10000 nM

## COc1cc(N2CCC(N3CCCN(C)CC3)CC2)c(C)cc1Nc1ncc(Cl)c(Nc2cc3c(cc2NS(C)(=O)=O)CCO3)n1 [Example 165, N-(6-((5-chloro-2-((2-methoxy-5-methyl-4-(4-(4-methyl-1,4-diazepan-1-yl)piperidin-1-yl)phenyl)amino)pyrimidin-4-yl)amino)-2,3-dihydrobenzofuran-5-yl)methanesulfonamide]
[1]
  GI50: 500 to 2000 nM
[2]
  GI50: 25 to 100 nM
[3]
  GI50: 25 to 100 nM
[4]
  GI50: 25 to 100 nM
[5]
  GI50: 25 to 100 nM
[6]
  GI50: 2000 to 10000 nM

## CN(C)CCCn1cc(Nc2ncc(Cl)c(Nc3cc(Cl)ccc3NS(C)(=O)=O)n2)cn1 [Example 167, N-(4-chloro-2-((5-chloro-2-((1-(3-(dimethylamino)propyl)-1H-pyrazol-4-yl)amino)pyrimidine-4-yl)amino)phenyl)methanesulfonamide]
[1]
  GI50: 500 to 2000 nM
[2]
  GI50: 100 to 500 nM
[3]
  GI50: 2000 to 10000 nM
[4]
  GI50: 2000 to 10000 nM
[5]
  GI50: 2000 to 10000 nM
[6]
  GI50: 2000 to 10000 nM

## COc1cc(N2CCC(N3CCN(C)CC3)CC2)c(Cl)cc1Nc1ncc(Cl)c(Nc2cc3c(cc2NS(C)(=O)=O)CCO3)n1 [Example 168, N-(6-((5-chloro-2-((5-chloro-2-methoxy-4-(4-(4-methylpiperazin-1-yl)piperidin-1-yl)phenyl)amino)pyrimidin-4-yl)amino)-2,3-dihydrobenzofuran-5-yl)methanesulfonamide]
[1]
  GI50: 25 to 100 nM
[2]
  GI50: 1 to 25 nM
[3]
  GI50: 1 to 25 nM
[4]
  GI50: 1 to 25 nM
[5]
  GI50: 1 to 25 nM
[6]
  GI50: 2000 to 10000 nM

## COc1cc(N2CCC(N3CCN(C)CC3)CC2)c(C)cc1Nc1ncc(Br)c(Nc2cc3c(cc2NS(C)(=O)=O)CCO3)n1 [Example 169, N-(6-((5-bromo-2-((2-methoxy-5-methyl-4-(4-(4-methylpiperazin-1-yl)piperidin-1-yl)phenyl)amino)pyrimidin-4-yl)amino)-2,3-dihydrobenzofuran-5-yl)methanesulfonamide]
[1]
  GI50: 100 to 500 nM
[2]
  GI50: 1 to 25 nM
[3]
  GI50: 1 to 25 nM
[4]
  GI50: 1 to 25 nM
[5]
  GI50: 1 to 25 nM
[6]
  GI50: 500 to 2000 nM
